Here are results for 6 molecules from patent US7902361B2, “Pyrimidin-4-yl-3, 4-thione compounds and their use in therapy” (Cyclacel Limited, priority 2003, dated 2011).

For assay [1], the target named is T1, GSK3β (Homo sapiens, UniProt P49841).
T1 construct: purchased New England Biolabs
Nature of the assay: GSK3β in vitro kinase assay. Type of assay: biochemical. The following applies: recombinant human GSK3β, 100 μM ATP. A digest of the protocol: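 Radiometric filter-binding assay with GSK3β (1.5 units), 200 μM CREB phosphopeptide, 100 μM ATP plus [γ-32P]ATP, in 20 mM Tris HCl pH7.5, 5 mM DTT, 15 mM MgCl2, 2% DMSO; 30 min at 30° C, stopped with phosphoric acid. 32P incorporation counted by scintillation; IC50 from 10-point titration.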

Assay [2] addresses T2, DYRK1A (Homo sapiens, UniProt Q13627).
T2 construct: purchased Upstate
As to the kind of experiment: DYRK1A in vitro kinase assay. The following applies: recombinant human DYRK1A, 100 μM ATP. Type of assay: biochemical. An excerpt: Dual specificity tyrosine phosphorylation regulated kinase 1A (DYRK1A) has been proposed, amongst other functions, to play a role in the regulation of glycogen metabolism in a way similar to GSK3. Some of the example compounds of the present invention were screened against recombinant human DYRK1A in vitro and the determined IC50 values are shown in Table 9. According to our current knowledge inhibition of DYRK1A will have additional positive effect on stimulation of glycogen synthase.
A 10-point titration was set up to determine the IC50 values of selected example compounds against DYRK1A. Assays were performed using 96-well microtiter plates and a final volume of 25 μL/well. Each assay contained 2.3 milliunits of DYRK1A (Upstate), 50 μM Woodtide peptide ([…], Upstate), 20 mM Tris HCl pH 8.0, 10 mM DTT, 5 mM EGTA, 1 mM NaVO3, 31 mM β-glycerophosphate, 15 mM MgCl2 supplemented with 100 μM ATP and 0.5 μCi of [γ-^32P] ATP plus or minus inhibitor in 2% DMSO. Assays were carried out for 60 minutes at 30° C. before stopping the reaction by the addition of an equal volume of 75 mM aqueous phosphoric acid. Samples were then spotted onto a p81 filterplate (Whatman) and a vacuum applied. Wells were washed 3 times with 200 μL of dilute aqueous phosphoric acid before the addition of 50 μL Microscint 40 per well. Incorporation of radioactivity was determined on a Topcount microplate scintillation counter (Packard).

Assay [3] has as its target CDK9/cyclin T1 (Homo sapiens, UniProt P50750). As to the kind of experiment: Kinase assay CDK9/cyclin T1. Type of assay: biochemical. The settings on record: Ki calculated (Cheng-Prusoff) from experimentally determined IC50 and Km,ATP; read-out: Kinase Inhibition Ki CDK9 - cyclin T1. In a few lines:
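Radiometric filter assays used recombinant kinases or complexes (2-4 μg) with appropriate polypeptide substrates in pH 7.4 β-glycerophosphate/MOPS buffer. Reactions were started with 15 mM MgCl2 and 100 μM ATP containing [γ-32P]-ATP and run at 30° C. Phosphate incorporated into substrate was counted by scintillation after washing.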

Assay [4] deals with glycogen synthase. Nature of the assay: Glycogen synthase activation in HEK293 cells. Type of assay: cell-based. The following applies: for Max FI (% to LiCl): maximum fold induction normalised to 40 mM LiCl. As to the method:
HEK293 cells, mouse adipocytes or rat myotubes were treated in 10-cm Petri dishes with different concentrations of GSK3 inhibitor example compounds for 90 minutes. At the end of the treatment period the cells were washed and scraped in ice cold PBS buffer supplemented with 20 mM NaF. The cells were pelleted by centrifugation and lysed in 300 μL buffer (50 mM.HEPES pH 7.5, 10 mM EDTA, 100 mM NaF, 5 mM DTT, protease inhibitor cocktail (Sigma)). After incubation for 30 min on ice the samples were cleared by centrifugation. The activity of glycogen synthase was determined in the soluble fraction at two different concentrations of […]—low (0.1 mM) and high (10 mM). The reaction was carried out for 30 min (buffer: 50 mM Tris pH 7.8, 20 mM EDTA, 25 mM NaF, 5 mM DTT). The reaction mixture (total volume of 90 μL) contained 1% glycogen, 0.3 mM UDP-glucose and 0.06 μCi ^14C-UDP-glucose. Reaction was stopped by transfer of 70 μL to a GFC 96-well filter plate, containing 140 μL 100% ethanol and the glycogen was allowed to precipitate for 1 h at 4° C. The wells were washed 2 times with 200 μL 66% ethanol and than allowed to dry. Subsequently, 100 μL of scintillation liquid was added, and plates were sealed and counted in a Packard Topcounter. Glycogen synthase activation was calculated as the ratio between the incorporation of labelled ^14C-UDP-glucose in glycogen at low and high concentration of […] (fractional velocity).
The ability of GSK3 inhibitors to activate glycogen synthase was determined in HEK293 cells, mouse adipocytes and rat myotubed. The compounds tested activated glycogen synthase in all three cellular systems with EC50 values in the sub-micromolar to low micromolar concentration range. Most of them exceeded the stimulation induced by 40 mM LiCl (the highest compound concentration used in the assay was 20 μM).

Assay [5] deals with T3, GSK3α (Homo sapiens, UniProt P49840).
T3 construct: purchased Upstate
T3 sequence (P49840 whole entry): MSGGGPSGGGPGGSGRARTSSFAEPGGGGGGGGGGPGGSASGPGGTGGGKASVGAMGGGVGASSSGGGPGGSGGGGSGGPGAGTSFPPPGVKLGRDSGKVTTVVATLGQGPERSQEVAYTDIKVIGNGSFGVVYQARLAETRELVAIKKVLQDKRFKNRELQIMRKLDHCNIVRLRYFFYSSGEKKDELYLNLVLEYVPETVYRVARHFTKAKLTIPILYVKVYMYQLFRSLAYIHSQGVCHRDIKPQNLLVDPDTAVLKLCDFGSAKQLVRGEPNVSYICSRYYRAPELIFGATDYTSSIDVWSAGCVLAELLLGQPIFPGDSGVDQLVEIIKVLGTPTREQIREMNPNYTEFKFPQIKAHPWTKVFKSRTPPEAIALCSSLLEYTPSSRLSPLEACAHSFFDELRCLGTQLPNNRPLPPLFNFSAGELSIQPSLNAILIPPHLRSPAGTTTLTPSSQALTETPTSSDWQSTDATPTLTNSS
Nature of the assay: GSK3α in vitro kinase assay. Type of assay: biochemical. The settings on record: recombinant human GSK3α, 100 μM ATP. As to the method: Both isoforms of GSK3 (α and β) are involved in the regulation of glycogen synthase activity—key enzyme in the glycogen metabolism. The inhibitory potency of example compounds was determined using in vitro kinase assays with recombinant human GSK3-α and -β; the IC50 values determined are presented in Table 9.
A 10-point titration was set up to determine the IC50 values of selected example compounds against GSK3β. Assays were performed using 96-well microtiter plates with a final volume of 25 μL per well. Each assay contained 1.5 units of GSK3β(New England Biolabs), 200 μM CREB phosphopeptide ([…]pSYR, Alta Biosciences), 20 mM Tris HCl pH7.5, 5 mM DTT, 15 mM MgCl2 supplemented with 100 μM ATP and 0.5 μCi of [γ-^32P] ATP plus or minus inhibitor in 2% DMSO. Assays were carried out for 30 minutes at 30° C. before stopping the reaction by the addition of an equal volume of 75 mM aqueous phosphoric acid. Samples were then spotted onto a p81 filterplate (Whatman) and a vacuum was applied. Wells were washed 3 times with 200 μL of dilute aqueous phosphoric acid before the addition of 50 μL Microscint 40 per well. Incorporation of radioactivity was determined on a Topcount microplate scintillation counter (Packard).
GSK3α (Upstate) was assayed exactly as described above except that 1 ng of enzyme was added per assay point.

Like-named read-outs stand apart in the source and are kept apart here.

T1 sequence (P49841 whole entry): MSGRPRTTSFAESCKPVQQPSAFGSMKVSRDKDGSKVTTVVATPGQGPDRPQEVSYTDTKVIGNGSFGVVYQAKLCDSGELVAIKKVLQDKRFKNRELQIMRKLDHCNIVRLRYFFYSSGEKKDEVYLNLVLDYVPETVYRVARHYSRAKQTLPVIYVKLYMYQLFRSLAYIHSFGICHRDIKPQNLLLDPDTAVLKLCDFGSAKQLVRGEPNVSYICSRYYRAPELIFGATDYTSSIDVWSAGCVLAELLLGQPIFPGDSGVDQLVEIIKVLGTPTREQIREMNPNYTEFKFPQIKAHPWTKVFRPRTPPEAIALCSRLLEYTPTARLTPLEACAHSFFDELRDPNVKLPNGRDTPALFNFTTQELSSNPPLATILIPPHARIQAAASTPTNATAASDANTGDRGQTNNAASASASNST
CDK9/cyclin T1, sequence (P50750 whole entry, species assumed): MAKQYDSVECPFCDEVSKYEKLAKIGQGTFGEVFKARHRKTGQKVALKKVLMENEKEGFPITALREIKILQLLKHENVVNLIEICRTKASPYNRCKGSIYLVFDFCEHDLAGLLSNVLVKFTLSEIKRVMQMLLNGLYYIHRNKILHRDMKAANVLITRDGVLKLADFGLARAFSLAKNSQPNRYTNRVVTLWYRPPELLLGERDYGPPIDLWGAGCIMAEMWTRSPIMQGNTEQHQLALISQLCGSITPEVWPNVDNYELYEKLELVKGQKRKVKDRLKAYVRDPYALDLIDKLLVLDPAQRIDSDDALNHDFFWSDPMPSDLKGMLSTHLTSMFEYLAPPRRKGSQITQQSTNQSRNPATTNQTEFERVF
CDK9/cyclin T1, sequence (O60563 whole entry partner, species assumed): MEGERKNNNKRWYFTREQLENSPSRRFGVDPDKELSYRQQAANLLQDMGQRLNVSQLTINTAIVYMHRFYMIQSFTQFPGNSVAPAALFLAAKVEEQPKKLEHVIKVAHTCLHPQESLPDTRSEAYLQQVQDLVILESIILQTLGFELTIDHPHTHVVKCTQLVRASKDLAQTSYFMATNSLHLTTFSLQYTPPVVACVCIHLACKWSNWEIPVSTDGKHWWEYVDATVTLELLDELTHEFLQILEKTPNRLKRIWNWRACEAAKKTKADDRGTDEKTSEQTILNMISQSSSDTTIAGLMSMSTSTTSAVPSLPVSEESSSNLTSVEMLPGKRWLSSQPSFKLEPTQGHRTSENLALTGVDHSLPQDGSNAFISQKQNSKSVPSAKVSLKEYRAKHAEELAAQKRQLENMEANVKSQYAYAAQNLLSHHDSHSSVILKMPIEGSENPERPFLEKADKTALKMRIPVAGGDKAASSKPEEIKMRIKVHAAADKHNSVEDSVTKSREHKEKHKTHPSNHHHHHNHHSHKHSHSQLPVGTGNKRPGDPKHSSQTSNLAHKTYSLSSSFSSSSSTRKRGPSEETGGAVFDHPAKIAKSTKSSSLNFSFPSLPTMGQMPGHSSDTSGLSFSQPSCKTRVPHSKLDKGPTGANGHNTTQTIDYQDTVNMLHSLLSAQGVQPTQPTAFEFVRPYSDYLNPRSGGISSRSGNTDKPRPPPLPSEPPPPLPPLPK

Broadly, the IC50 is the concentration at which inhibition is half-maximal. In general, Ki refers to a dissociation constant, usually derived from enzyme kinetics or from competition with a known ligand. The term EC50 denotes the concentration needed to bring the measured effect to its halfway point. For the molecule `CC(=O)Nc1cc(Nc2nccc(-c3sc(=O)n(C)c3C)n2)cc(C(F)(F)F)c1` [Compound 64, N-{3-[4-(3,4-Dimethyl-2-oxo-2,3-dihydro-thiazol-5-yl)-pyrimidin-2-ylamino]-5-trifluoromethyl-phenyl}-acetamide], the values for the IC50 in assay [1], in assay [2] and in assay [5] were 3 nM, 77 nM and 2.4 nM, respectively. Moreover, in assay [3], the Ki was 5.7 nM. The EC50 in assay [4] (Homo sapiens) was 49 ± 70 nM. For the same molecule, the “Max FI (% to LiCl)” value in assay [4] is recorded as 107 % to LiCl.

With `CCNS(=O)(=O)c1cccc(Nc2nccc(-c3sc(=O)n(C)c3C)n2)c1` [Compound 62, 3-[4-(3,4-Dimethyl-2-oxo-2,3-dihydro-thiazol-5-yl)-pyrimidin-2-ylamino]-N-ethyl-benzenesulfonamide], the figures for the IC50 in assay [1], in assay [2] and in assay [5] were 22 nM, 51 nM and 27 nM, respectively. In addition, the Ki in assay [3] was 4.8 nM. In assay [4] (Homo sapiens), this molecule had an EC50 of 684 ± 133 nM. Moreover, the “Max FI (% to LiCl)” value in assay [4] was 117 % to LiCl.

Regarding `Cc1c(-c2ccnc(Nc3cccc(S(=O)(=O)NCCO)c3)n2)sc(=O)n1C` [Compound 75, 3-[4-(3,4-Dimethyl-2-oxo-2,3-dihydro-thiazol-5-yl)-pyrimidin-2-ylamino]-N-(2-hydroxy-ethyl)-benzenesulfonamide], the results for the IC50 in assay [1], in assay [2] and in assay [5] were 25 nM, 26 nM and 31 nM, respectively. In addition, the Ki in assay [3] is 9.5 nM. Moreover, the half-maximal effective concentration (EC50) in assay [4] (Homo sapiens) came out at 5170 ± 2200 nM. In assay [4], the “Max FI (% to LiCl)” value was 108 % to LiCl.

For `COCCNS(=O)(=O)c1cccc(Nc2nccc(-c3sc(=O)n(C)c3C)n2)c1` [Compound 67, 3-[4-(3,4-Dimethyl-2-oxo-2,3-dihydro-thiazol-5-yl)-pyrimidin-2-ylamino]-N-(2-methoxy-ethyl)-benzenesulfonamide], the 50% inhibitory concentration (IC50) in assay [1] was 23 nM; in assay [2], 19 nM; in assay [5] it was 17.8 nM. Besides, in assay [3], the Ki is 4.8 nM. In addition, the EC50 in assay [4] (Homo sapiens) came to 3720 ± 2500 nM. The “Max FI (% to LiCl)” value in assay [4] is on record as 85 % to LiCl.

`Cc1c(-c2ccnc(Nc3cc(Br)cc(C(F)(F)F)c3)n2)sc(=O)n1C` [Compound 68, 5-[2-(3-Bromo-5-trifluoromethyl-phenylamino)-pyrimidin-4-yl]-3,4-dimethyl-3H-thiazol-2-one]: the IC50 in assay [1] turned out to be 61 nM; in assay [2] it was 73 nM; in assay [5], 136 nM. Moreover, in assay [3], the Ki was 140 nM. In addition, the EC50 in assay [4] (Homo sapiens) was determined as 8340 ± 1880 nM. For the same molecule, the “Max FI (% to LiCl)” value in assay [4] is recorded as 96 % to LiCl.

Take `CNc1cc(Nc2nccc(-c3sc(=O)n(C)c3C)n2)cc(C(F)(F)F)c1` [Compound 76, 3,4-Dimethyl-5-[2-(3-methylamino-5-trifluoromethyl-phenylamino)-pyrimidin-4-yl]-3H-thiazol-2-one]: the IC50 in assay [1] turned out to be 18.9 nM; in assay [2], 148 nM; in assay [5], 42 nM. Further, the Ki in assay [3] is 21 nM. This molecule displayed an EC50 in assay [4] of 444 ± 178 nM. In assay [4], the “Max FI (% to LiCl)” value is 88 % to LiCl.
